From ChEMBL document CHEMBL3352353, “Dicarba analogues of α-conotoxin RgIA. Structure, stability, and activity at potential pain targets” (J Med Chem, 2014)
Activity calls are given as the source filed them. The calls are words filed in the database; no cut-off is given here. Positions of bridges follow the written chain, without caps; N, C: chain ends. Non-standard residues stand in square brackets, D forms with d. Residues, ends and D or L forms follow the SMILES beside them. AllylGly = C=CC[C@H](N)C(=O)O

Legend:
[1] = target: T1, GABA-B receptor (Homo sapiens) (UniProt Q9UBS5+O75899); test: Inhibition of human GABAB R1/R2 receptor expressed in HEK293 cells co-expressing human Cav2.2 alpha1B/alpha2delta1/beta3 channel assessed as inhibition of depolarization-activated Ba2+ current at 1 uM followed by compound washout by whole cell patch clamp technique relative to control; type: cell-based
[2] = target: T2, Nicotinic acetylcholine receptor alpha9/alpha10 (Rattus norvegicus) (UniProt P43144+Q9JLB5); test: Inhibition of rat alpha9alpha10 nAChR expressed in Xenopus oocytes assessed as inhibition of Ach-evoked current at 30 uM after 5 mins by voltage-clamp technique; type: cell-based
[3] = target: T3, Voltage-dependent N-type calcium channel subunit alpha-1B/Voltage-dependent calcium channel subunit alpha-2/delta-1/Voltage-dependent L-type calcium channel subunit beta-3 (Homo sapiens) (UniProt P54289+Q00975+P54284); test: Inhibition of human GABAB R1/R2 receptor expressed in HEK293 cells co-expressing human Cav2.2 alpha1B/alpha2delta1/beta3 channel assessed as inhibition of depolarization-activated Ba2+ current at 50 uM followed by compound washout by whole cell patch clamp technique relative to control; type: cell-based
[4] = Metabolic stability in human serum assessed as compound remaining at 3 mM after 24 hrs by RP-HPLC analysis; type: ADME, cell-free; conditions: read-out: Stability
[5] = target: T3, Voltage-dependent N-type calcium channel subunit alpha-1B/Voltage-dependent calcium channel subunit alpha-2/delta-1/Voltage-dependent L-type calcium channel subunit beta-3 (Homo sapiens); test: Inhibition of human Cav2.2 alpha1B/alpha2delta1/beta3 channel expressed in HEK293 cells assessed as inhibition of depolarization-activated Ba2+ current at 1 uM by whole cell patch clamp technique relative to control; type: cell-based
[6] = target: T1, GABA-B receptor (Homo sapiens); test: Inhibition of human GABAB R1/R2 receptor expressed in HEK293 cells co-expressing human Cav2.2 alpha1B/alpha2delta1/beta3 channel assessed as inhibition of depolarization-activated Ba2+ current at 1 uM by whole cell patch clamp technique relative to control; type: cell-based
[7] = target: T1, GABA-B receptor (Homo sapiens); test: Inhibition of human GABAB R1/R2 receptor expressed in HEK293 cells co-expressing human Cav2.2 alpha1B/alpha2delta1/beta3 channel assessed as inhibition of depolarization-activated Ba2+ current by whole cell patch clamp technique relative to control; type: cell-based
[8] = target: T1, GABA-B receptor (Homo sapiens); test: Inhibition of human GABAB R1/R2 receptor expressed in HEK293 cells co-expressing human Cav2.2 alpha1B/alpha2delta1/beta3 channel assessed as inhibition of depolarization-activated Ba2+ current depolarization-activated Ba2+ current at 50 uM by whole cell patch clamp technique relative to control; type: cell-based
[9] = Metabolic stability in human serum assessed as compound remaining at 3 mM after 1 hr by RP-HPLC analysis; type: ADME, cell-free; conditions: read-out: Stability
[10] = target: Voltage-dependent N-type calcium channel subunit alpha-1B (Rattus norvegicus) (UniProt Q02294); test: Inhibition of N-type Ca channel in Wistar rat DRG neuron at 100 nM by whole cell patch clamp technique relative to control
[11] = target: T4, Neuronal acetylcholine receptor subunit alpha-7 (Homo sapiens, UniProt P36544); test: Inhibition of human alpha7 nAChR expressed in Xenopus oocytes assessed as inhibition of Ach-evoked current after 5 mins by voltage-clamp technique; type: cell-based
[12] = target: T1, GABA-B receptor (Homo sapiens); test: Inhibition of human GABAB R1/R2 receptor expressed in HEK293 cells co-expressing human Cav2.2 alpha1B/alpha2delta1/beta3 channel assessed as inhibition of depolarization-activated Ba2+ current at 200 nM by whole cell patch clamp technique relative to control; type: cell-based
[13] = target: T2, Nicotinic acetylcholine receptor alpha9/alpha10 (Rattus norvegicus); test: (§1) Inhibition of rat alpha9alpha10 nAChR expressed in Xenopus oocytes assessed as inhibition of Ach-evoked current after 5 mins by voltage-clamp technique; type: cell-based
[14] = target: Voltage-dependent N-type calcium channel subunit alpha-1B (Rattus norvegicus) (UniProt Q02294); test: Inhibition of N-type Ca channel in Wistar rat DRG neuron at 1 nM by whole cell patch clamp technique relative to control
[15] = target: T2, Nicotinic acetylcholine receptor alpha9/alpha10 (Rattus norvegicus); test: Inhibition of rat alpha9alpha10 nAChR expressed in Xenopus oocytes assessed as inhibition of Ach-evoked current at 3 uM after 5 mins by voltage-clamp technique; type: cell-based
[16] = target: Nicotinic acetylcholine receptor alpha9/alpha10 (Rattus norvegicus, UniProt P43144+Q9JLB5); test: as §1; type: cell-based
[17] = target: T4, Neuronal acetylcholine receptor subunit alpha-7; test: Inhibition of human alpha7 nAChR expressed in Xenopus oocytes assessed as inhibition of Ach-evoked current at 3 uM after 5 mins by voltage-clamp technique; type: cell-based

T4 sequence (P36544 whole entry): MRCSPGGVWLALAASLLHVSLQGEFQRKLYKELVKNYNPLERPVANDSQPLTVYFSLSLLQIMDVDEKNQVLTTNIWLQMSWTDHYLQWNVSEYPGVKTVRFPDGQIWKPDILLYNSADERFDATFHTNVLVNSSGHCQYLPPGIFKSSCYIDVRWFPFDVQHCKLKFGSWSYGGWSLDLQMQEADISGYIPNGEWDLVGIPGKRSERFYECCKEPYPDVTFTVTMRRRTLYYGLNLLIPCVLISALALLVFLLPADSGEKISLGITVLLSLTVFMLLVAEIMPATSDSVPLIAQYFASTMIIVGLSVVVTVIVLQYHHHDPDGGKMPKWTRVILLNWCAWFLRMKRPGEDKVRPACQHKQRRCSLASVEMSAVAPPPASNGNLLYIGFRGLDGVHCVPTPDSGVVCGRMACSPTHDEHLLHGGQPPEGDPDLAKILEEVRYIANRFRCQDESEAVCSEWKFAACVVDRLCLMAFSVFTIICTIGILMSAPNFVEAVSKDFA
Chain of Voltage-dependent N-type calcium channel subunit alpha-1B (Rattus norvegicus) (Q02294 whole entry, looked up): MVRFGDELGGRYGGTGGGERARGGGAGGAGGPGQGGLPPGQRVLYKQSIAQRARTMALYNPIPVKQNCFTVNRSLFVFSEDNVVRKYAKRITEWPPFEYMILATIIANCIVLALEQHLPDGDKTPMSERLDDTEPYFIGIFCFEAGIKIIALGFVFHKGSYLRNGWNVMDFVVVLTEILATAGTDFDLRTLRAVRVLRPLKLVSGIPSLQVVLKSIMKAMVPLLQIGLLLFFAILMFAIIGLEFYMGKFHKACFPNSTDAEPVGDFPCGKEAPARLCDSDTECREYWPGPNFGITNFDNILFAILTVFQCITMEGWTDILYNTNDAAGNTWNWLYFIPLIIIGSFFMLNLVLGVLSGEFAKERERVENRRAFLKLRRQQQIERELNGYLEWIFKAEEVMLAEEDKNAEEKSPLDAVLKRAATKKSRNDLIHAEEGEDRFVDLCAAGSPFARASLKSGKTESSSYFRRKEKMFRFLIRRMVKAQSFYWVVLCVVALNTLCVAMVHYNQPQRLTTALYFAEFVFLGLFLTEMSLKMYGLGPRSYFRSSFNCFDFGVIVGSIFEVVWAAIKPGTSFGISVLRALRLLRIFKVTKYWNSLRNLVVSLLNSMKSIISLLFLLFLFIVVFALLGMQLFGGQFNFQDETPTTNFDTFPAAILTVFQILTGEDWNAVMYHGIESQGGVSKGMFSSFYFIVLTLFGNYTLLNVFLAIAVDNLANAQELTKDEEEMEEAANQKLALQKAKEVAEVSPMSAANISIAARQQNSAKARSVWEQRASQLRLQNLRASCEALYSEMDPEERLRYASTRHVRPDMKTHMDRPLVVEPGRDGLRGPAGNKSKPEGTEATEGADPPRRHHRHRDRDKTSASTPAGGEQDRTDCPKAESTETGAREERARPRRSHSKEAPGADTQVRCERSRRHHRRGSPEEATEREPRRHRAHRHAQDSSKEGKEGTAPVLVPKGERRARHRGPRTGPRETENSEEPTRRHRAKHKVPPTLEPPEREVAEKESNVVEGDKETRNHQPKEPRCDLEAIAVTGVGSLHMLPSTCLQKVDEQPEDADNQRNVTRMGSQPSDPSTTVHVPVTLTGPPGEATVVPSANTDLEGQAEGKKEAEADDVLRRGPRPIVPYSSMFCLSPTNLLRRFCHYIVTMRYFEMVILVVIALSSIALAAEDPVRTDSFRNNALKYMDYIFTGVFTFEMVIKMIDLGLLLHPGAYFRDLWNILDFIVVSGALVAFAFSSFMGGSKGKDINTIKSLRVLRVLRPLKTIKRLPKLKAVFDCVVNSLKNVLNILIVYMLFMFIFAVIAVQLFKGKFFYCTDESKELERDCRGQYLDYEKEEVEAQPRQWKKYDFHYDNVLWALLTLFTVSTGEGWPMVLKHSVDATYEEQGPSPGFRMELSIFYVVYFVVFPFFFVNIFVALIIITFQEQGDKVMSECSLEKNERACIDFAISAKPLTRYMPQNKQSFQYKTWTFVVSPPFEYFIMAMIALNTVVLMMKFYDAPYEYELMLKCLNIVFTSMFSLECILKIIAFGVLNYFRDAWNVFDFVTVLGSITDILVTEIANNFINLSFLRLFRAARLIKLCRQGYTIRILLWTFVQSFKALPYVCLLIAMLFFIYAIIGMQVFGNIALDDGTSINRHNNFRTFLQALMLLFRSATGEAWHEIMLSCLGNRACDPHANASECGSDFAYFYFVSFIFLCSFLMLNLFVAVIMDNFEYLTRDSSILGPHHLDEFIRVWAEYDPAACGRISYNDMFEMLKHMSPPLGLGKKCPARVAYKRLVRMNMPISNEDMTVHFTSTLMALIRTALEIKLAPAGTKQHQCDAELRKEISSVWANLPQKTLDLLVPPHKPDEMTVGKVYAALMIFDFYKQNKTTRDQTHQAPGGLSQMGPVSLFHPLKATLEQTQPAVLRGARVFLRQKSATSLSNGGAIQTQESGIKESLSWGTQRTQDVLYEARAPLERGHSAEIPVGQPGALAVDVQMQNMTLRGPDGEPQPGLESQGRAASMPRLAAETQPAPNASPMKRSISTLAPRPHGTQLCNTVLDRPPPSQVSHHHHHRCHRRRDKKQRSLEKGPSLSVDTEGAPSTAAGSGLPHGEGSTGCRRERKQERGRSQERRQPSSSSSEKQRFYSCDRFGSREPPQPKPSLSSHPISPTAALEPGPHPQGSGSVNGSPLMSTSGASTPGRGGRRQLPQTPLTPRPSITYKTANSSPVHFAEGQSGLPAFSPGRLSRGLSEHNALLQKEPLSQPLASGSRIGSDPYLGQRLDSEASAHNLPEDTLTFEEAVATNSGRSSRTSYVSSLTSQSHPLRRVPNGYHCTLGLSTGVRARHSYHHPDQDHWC
Chain of Nicotinic acetylcholine receptor alpha9/alpha10 (P43144 whole entry): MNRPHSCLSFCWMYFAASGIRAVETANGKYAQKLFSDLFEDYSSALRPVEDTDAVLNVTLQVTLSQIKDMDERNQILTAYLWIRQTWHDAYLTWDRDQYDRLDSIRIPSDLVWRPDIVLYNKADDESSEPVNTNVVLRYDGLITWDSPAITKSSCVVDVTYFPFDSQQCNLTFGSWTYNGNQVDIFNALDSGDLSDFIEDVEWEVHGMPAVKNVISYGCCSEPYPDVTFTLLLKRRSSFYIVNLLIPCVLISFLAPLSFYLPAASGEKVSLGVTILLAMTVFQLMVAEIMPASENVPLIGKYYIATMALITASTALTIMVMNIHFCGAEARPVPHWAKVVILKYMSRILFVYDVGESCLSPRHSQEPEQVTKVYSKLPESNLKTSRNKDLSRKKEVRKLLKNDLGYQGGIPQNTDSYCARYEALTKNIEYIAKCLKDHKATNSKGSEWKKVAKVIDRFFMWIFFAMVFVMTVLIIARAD
Chain of Nicotinic acetylcholine receptor alpha9/alpha10 (Q9JLB5 whole entry): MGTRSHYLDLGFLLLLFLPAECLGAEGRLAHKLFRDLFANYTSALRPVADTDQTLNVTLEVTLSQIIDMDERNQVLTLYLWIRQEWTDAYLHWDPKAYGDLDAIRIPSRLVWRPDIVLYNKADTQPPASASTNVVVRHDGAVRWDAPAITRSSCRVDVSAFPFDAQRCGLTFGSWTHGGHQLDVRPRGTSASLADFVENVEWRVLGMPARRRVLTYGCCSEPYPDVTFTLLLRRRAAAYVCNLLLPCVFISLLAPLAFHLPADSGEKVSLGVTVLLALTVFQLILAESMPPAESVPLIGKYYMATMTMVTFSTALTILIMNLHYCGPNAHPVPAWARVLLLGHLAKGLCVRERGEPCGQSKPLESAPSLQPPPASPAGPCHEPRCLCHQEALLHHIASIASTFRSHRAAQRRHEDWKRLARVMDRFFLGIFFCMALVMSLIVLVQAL

SMILES	inhibition [2]	inhibition [6]	inhibition [10]	IC50 [11] [nM]	inhibition [14]	inhibition [15] [%]	IC50 [16] [nM]	also measured
N=C(N)NCCC[C@H](NC(=O)[C@@H]1CSSC[C@@H]2NC(=O)[C@@H](NC(=O)CN)C/C=C\C[C@H](NC(=O)[C@H](CCCNC(=N)N)NC(=O)[C@@H]3CCCN3C(=O)[C@H](CC(=O)O)NC(=O)[C@H](CO)NC2=O)C(=O)N[C@@H](CCCNC(=N)N)C(=O)N[C@@H](Cc2ccc(O)cc2)C(=O)N[C@@H](CCCNC(=N)N)C(=O)N1)C(=O)O	inactive	35%	Active	–	–	–	–	inhibition [1]: Active; inhibition [3]: inactive; remaining at 24 h, 3000 µM [4]: 2%; inhibition [5]: inactive; inhibition [7]: Dose-dependent effect; inhibition [8]: Active; remaining at 1 h, 3000 µM [9]: 30%
N=C(N)NCCC[C@H](NC(=O)[C@@H]1CSSC[C@@H]2NC(=O)[C@@H](NC(=O)CN)CSSC[C@H](NC(=O)[C@H](CCCNC(=N)N)NC(=O)[C@@H]3CCCN3C(=O)[C@H](CC(=O)O)NC(=O)[C@H](CO)NC2=O)C(=O)N[C@@H](CCCNC(=N)N)C(=O)N[C@@H](Cc2ccc(O)cc2)C(=O)N[C@@H](CCCNC(=N)N)C(=O)N1)C(=O)O	–	–	60.6%	3300	–	–	–	inhibition [11]: Dose-dependent effect; inhibition [12]: 20%; inhibition [13]: Dose-dependent effect
N=C(N)NCCC[C@H](NC(=O)[C@@H]1C/C=C/C[C@@H]2NC(=O)[C@@H](NC(=O)CN)CSSC[C@H](NC(=O)[C@H](CCCNC(=N)N)NC(=O)[C@@H]3CCCN3C(=O)[C@H](CC(=O)O)NC(=O)[C@H](CO)NC2=O)C(=O)N[C@@H](CCCNC(=N)N)C(=O)N[C@@H](Cc2ccc(O)cc2)C(=O)N[C@@H](CCCNC(=N)N)C(=O)N1)C(=O)O (H-GC[AllylGly]SDPRCRYR[AllylGly]R-OH; disulfide 2-8; staple (E) 3-12)	–	inactive	–	3950	inactive	35.4	1150	–
N=C(N)NCCC[C@H](NC(=O)[C@@H]1CSSC[C@@H]2NC(=O)[C@@H](NC(=O)CN)C/C=C/C[C@H](NC(=O)[C@H](CCCNC(=N)N)NC(=O)[C@@H]3CCCN3C(=O)[C@H](CC(=O)O)NC(=O)[C@H](CO)NC2=O)C(=O)N[C@@H](CCCNC(=N)N)C(=O)N[C@@H](Cc2ccc(O)cc2)C(=O)N[C@@H](CCCNC(=N)N)C(=O)N1)C(=O)O	inactive	–	Active	–	–	–	–	–
N=C(N)NCCC[C@H](NC(=O)[C@@H]1C/C=C\C[C@@H]2NC(=O)[C@@H](NC(=O)CN)CSSC[C@H](NC(=O)[C@H](CCCNC(=N)N)NC(=O)[C@@H]3CCCN3C(=O)[C@H](CC(=O)O)NC(=O)[C@H](CO)NC2=O)C(=O)N[C@@H](CCCNC(=N)N)C(=O)N[C@@H](Cc2ccc(O)cc2)C(=O)N[C@@H](CCCNC(=N)N)C(=O)N1)C(=O)O (H-GC[AllylGly]SDPRCRYR[AllylGly]R-OH; disulfide 2-8; staple (Z) 3-12)	–	–	–	–	inactive	31.5	1470	inhibition [17]: inactive
